# From PMC10695737, “Crystal Modifications of a Cyclic Guanosine Phosphorothioate Analogue, a Drug Candidate for Retinal Neurodegenerations” (ChemistryOpen, 2023)
# “And” between values parts separate entries of the source, which are not always exact repeats. Identical values can stand only once.
# How the values were obtained:
# Type in all cases: physicochemical
# [1] = Phase solubility in deionized water (HPLC); conditions: for pH of mixture: aqueous solubility measurements, supplement; for pH at saturation solubility / solubility: deionized H2O, quadruplicates
# Method: The pH‐solubility profile of cGMPSA salts and free acid was determined by phase solubility techniques.[18] Briefly, saturated mixtures of the compound were prepared by adding excess amount to 4 mL vials containing 2 mL deionized water, an acidic buffer (0.1 M HCl(aq), pH 1), or a basic buffer (0.1 M NaOH(aq), pH 13). They were allowed to equilibrate for 24 h using mild agitation before recording the pH. The clear solution was separated from the solids by filtration with a Cytiva Whatman™ Mini‐Uniprep™ polypropylene 0.45 μm filter device and diluted to an appropriate analytical concentration where needed. The sample was then analyzed by HPLC, and the solubility determined by integrating the area of the peak of interest against a standard curve. The solids were also analyzed by XRPD to record the crystal modification obtained.
# [2] = Dynamic vapor sorption (DVS), water sorption as Δm; conditions: for Water sorption Δm: 25 °C
# Method: The samples were analyzed at 25 °C with a Surface Measurements Systems DVS Advantage. A sample was weighted into a weighing pan and its mass was monitored while it was exposed to different relative humidities (%RH=%P/P0). Before the analysis, the weighing pan was subject to an antistatic program.
# The analysis program consisted of two cycles. In each cycle, the relative humidity was increased stepwise up to 95 % RH (starting from 0 % RH, 9 steps with 10 % and one step with 5 %) and then decreased stepwise to 0 % RH again. In both sorption/desorption cycles, at each step, the sample was kept at the set relative humidity until dm/dt <0.002 %, over 15 min.
# [3] = Thermal analysis (DSC/TGA), decomposition; conditions: DSC 25 to 300 °C, 10 °C/min
# Method: Differential scanning calorimetry (DSC) analyses were carried out on a Mettler DSC822e, equipped with a Thermo Haake EK45/MT cooler. The samples were weighed into a 40 μL Al‐cup, which were then closed with a pierced lid. The sample was scanned from 25 to 300 °C, with a scan rate of 10 °C/min.
# Thermogravimetric analysis (TGA) was performed on a Mettler TGA/SDTA 851e, equipped with a Haake C50P cooler. Alternatively, thermogravimetric and DSC analyses were carried out simultaneously in a Mettler Toledo TGA/DSC 3+. The samples were weighed into a 100 μL Al‐cup and this was flushed with dry nitrogen gas during the analysis. The sample was scanned from 25 to 300 °C, with a scan rate of 10 °C/min.
# [4] = 0 % RH, after final desorption cycle 2 (D2)
# [5] = 30 % RH, desorption cycle 2 (D2)
# [6] = 60 % RH, desorption cycle 2 (D2)
# [7] = 95 % RH, desorption cycle 2 (D2)
Structure (SMILES),pH of mixture [1],pH at saturation solubility [1],solubility [1],"Water sorption Δm [2, 4] [%]","Water sorption Δm [2, 5] [%]","Water sorption Δm ([2]; 30 % RH, sorption cycle 1 (S1)) [%]","Water sorption Δm [2, 6] [%]","Water sorption Δm ([2]; 60 % RH, sorption cycle 1 (S1)) [%]","Water sorption Δm [2, 7] [%]","Water sorption Δm ([2]; 95 % RH, sorption cycle 1 (S1)) [%]",Observed Δm ([2]; DVS step compared to theoretical hydrate mass change) [%],Stable %RH range ([2]; RH range of the corresponding hydrate step on DVS),"change in mass (Δm) ([2]; at 95 % relative humidity (maximum RH), stated in text) [%]",initial early sorption Δm ([2]; consistent with 1 equivalent of H2O) [%],"Δm after desorption ([2]; equilibrated value after desorption cycles, 0 % RH)",solubility ([1]; listed as ‐Tris) [mg/mL],Onset of decomposition (DSC exotherm) [3]
N.O=c1c2nc(Br)n([C@@H]3O[C@@H]4COP(=O)(S)O[C@H]4[C@H]3O)c2nc2[nH]c(-c3ccccc3)cn12 (stereo partly shown) [cGMPSA‐NH4],"3,16",3.2 (±0.1),7.9 (±8.0) mg/mL,–,–,–,–,–,–,–,–,–,–,–,–,–,–
"O=c1c2nc(Br)n([C@@H]3O[C@@H]4CO[P@@](O)(=S)O[C@H]4[C@H]3O)c2nc2[nH]c(-c3ccccc3)cn12.c1ccc(CCNCc2ccccc2)cc1 [cGMPSA‐Bnet, N-(Phenylmethyl)benzeneethanammonium RP-8-Bromo-β-phenyl-1,N2-ethenoguanosine-3′,5′-cyclicmonophosphorothioate]","7,17",7.2 (±0.04),0.05 (±0.03) mg/mL,0.7,4.4,3.4,6.1,5.2,7.7,8.0,–,–,–,–,–,–,–
"NC(CO)(CO)CO.O=c1c2nc(Br)n([C@@H]3O[C@@H]4CO[P@@](O)(=S)O[C@H]4[C@H]3O)c2nc2[nH]c(-c3ccccc3)cn12 [cGMPSA‐Tris, Tris(hydroxymethyl)aminomethane RP-8-Bromo-β-phenyl-1,N2-ethenoguanosine-3′,5′-cyclicmonophosphorothiotic acid]","8,45",8.5 (±0.1),13.5 (±3.5) mg/mL,3.3,5.5,4.9,6.8,6.0,32.4,32.8,3.3,0–70 %RH,32,~3,3.3,~15,–
O=c1c2nc(Br)n([C@@H]3O[C@@H]4COP(=O)(S)O[C@H]4[C@H]3O)c2nc2[nH]c(-c3ccccc3)cn12 (stereo partly shown) [cGMPSA‐H],"2,47",2.5 (±0.2),1.7 (±0.1) mg/mL,0.3,5.7,5.3,6.7,6.2,9.3,9.1,–,–,–,–,–,–,163.6 °C and ~ 163 °C
